In patent US11470793B2, “Bacterial strain having anti-fungal properties and uses thereof” (Kontzamanis Graumann Smith MacMillan Inc., priority 2019, dated 2022):

Test system: F. graminearum 3ADON (high toxin producing strain)
Format: cell-based, Fusarium graminearum

CC(/C=C/[C@@]1(C)[C@H](C)CCC(=O)[C@@H]1C)=C\Cc1c(O)cc(C)c(C=O)c1O [cylindrol B, 4-dihydroxy-6-methyl-3-[(2E,4E)-3-methyl-5-[(1R,2R,6R)-1,2,6-trimethyl-3-oxocyclohexyl]penta-2,4-dienyl]benzaldehyde]
clearing of fungus around the well: showed a clearing of fungus around the well
